Measured values from PubChem BioAssay AID687005 (Broad Institute, 2013).
Results filed as inconclusive are left out. Active and inactive are the calls of the source.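 Rule for the calls: active = Compounds that reduce signal, with fitted half-maximal dose at or under twice the top valid tested dose; inconclusive = Poor fit, or flat curve losing 30 to 70% of signal; inactive = Potency past limit, flat within 30%, or opposite direction.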

Assay: viability loss in HEK293T cells – cell-based, ATP luminescence, cherry-pick samples, cytotoxicity control, dose response (AID 687005)
Conditions: HEK293T viability, ATP luminescence (CellTiter-Glo), 48 h

## CNC[C@H]1Oc2c(NS(=O)(=O)c3cccs3)cccc2C(=O)N([C@H](C)CO)C[C@@H]1C
At 26 µM (top of the series)
  activity change, negative = cytotoxicity: -26.9% (inactive)

## CCNC(=O)COc1cccc(C(=O)NCc2ccccc2)c1
At 26 µM (top of the series)
  activity change, negative = cytotoxicity: -54% (inactive)

## COCC(=O)Nc1ccc2c(c1)OC[C@@H](C)N(C(=O)Cc1cccnc1)C[C@H](C)[C@@H](OC)CN(C)C2=O
At 26 µM (top of the series)
  activity change, negative = cytotoxicity: -14.6% (inactive)

## O=C1CCC(C(=O)Nc2cccc(C(F)(F)F)c2)N1 (centres undefined)
At 26 µM (top of the series)
  activity change, negative = cytotoxicity: 22% (inactive)

## C[C@H](CO)N1C[C@H](C)[C@H](CN(C)S(=O)(=O)c2cn(C)cn2)Oc2ncc(/C=C/c3ccccc3)cc2C1=O
At 26 µM (top of the series)
  activity change, negative = cytotoxicity: 5.3% (inactive)

## CCC(=O)N1[C@H](CN(C)C(C)=O)[C@@H](c2ccc(C3=CCCCC3)cc2)[C@@H]1CO
At 26 µM (top of the series)
  activity change, negative = cytotoxicity: -18.9% (inactive)

## C[C@H](CO)N1C[C@H](C)[C@H](CN(C)Cc2cccc(C(F)(F)F)c2)OCc2cnnn2CCCC1=O
At 23.5 µM (top of the series)
  activity change, negative = cytotoxicity: 0.8% (inactive)

## C[C@H](CO)N1C[C@H](C)[C@H](CN(C)C(=O)NC2CCCCC2)OCCCC[C@H](C)Oc2ccc(NS(=O)(=O)c3cn(C)cn3)cc2C1=O
At 26 µM (top of the series)
  activity change, negative = cytotoxicity: 3.14% (inactive)

## CC(=O)NC[C@H]1[C@@H](c2ccc(C3=CCCC3)cc2)[C@@H](CO)N1C(=O)NC(C)C
At 26 µM (top of the series)
  activity change, negative = cytotoxicity: -31.1% (inactive)

## C[C@H]1CN([C@@H](C)CO)C(=O)c2ccccc2-c2ccccc2CO[C@H]1CN(C)S(=O)(=O)c1cccc(C#N)c1
At 26 µM (top of the series)
  activity change, negative = cytotoxicity: -8.25% (inactive)

## Cc1noc(C)c1NC(=O)N(C)C[C@@H]1Oc2ccc(NC(=O)NC(C)C)cc2CC(=O)N([C@@H](C)CO)C[C@@H]1C
At 23.5 µM (top of the series)
  activity change, negative = cytotoxicity: -4.18% (inactive)

## CNC(=O)C[C@H]1CC[C@H]2[C@H](COc3ccc(NC(=O)Nc4ccccc4)cc3C(=O)N2C)O1
At 26 µM (top of the series)
  activity change, negative = cytotoxicity: -20.5% (inactive)

## Cc1ccc(NC(=O)C2(C)CCN2C(=O)CCC2CCCC2)cc1C (centres undefined)
At 35 µM (top of the series)
  activity change, negative = cytotoxicity: -23.2% (inactive)

## O=C(NC1CCCC1)N1CCCCN2[C@H](CO)[C@@H](c3ccc(-c4cncnc4)cc3)[C@H]2C1
At 26 µM (top of the series)
  activity change, negative = cytotoxicity: 41.2% (inactive)

## COCC(=O)N(C)C[C@@H]1Oc2ncc(C#CCC3CCCC3)cc2C(=O)N([C@H](C)CO)C[C@H]1C
At 26 µM (top of the series)
  activity change, negative = cytotoxicity: 57.2% (inactive)

## Cc1cc(C)c(NC(=O)C(C)N2CCCCCC2)c(C)c1 (centres undefined)
At 26 µM (top of the series)
  activity change, negative = cytotoxicity: 16.2% (inactive)

## CCCC(C)(C)C(=O)N1CCC1(C)C(=O)Nc1ccc(C)cc1 (centres undefined)
At 38 µM (top of the series)
  activity change, negative = cytotoxicity: -11.3% (inactive)

## CCC(=O)N1[C@H](CO)[C@@H](c2ccc(-c3cccnc3)cc2)[C@@H]1CN(C)C(C)=O
At 23.5 µM (top of the series)
  activity change, negative = cytotoxicity: 3.73% (inactive)

## COc1cccc(NC(=S)NC(=O)Cc2ccc(Cl)cc2)c1
At 26 µM (top of the series)
  activity change, negative = cytotoxicity: -6.68% (inactive)

## C[C@@H]1CN([C@H](C)CO)C(=O)c2cc(/C=C/c3ccccc3)cnc2O[C@@H]1CN(C)S(C)(=O)=O
At 26 µM (top of the series)
  activity change, negative = cytotoxicity: -0.658% (inactive)

## Cc1noc(C)c1NC(=O)N(C)C[C@H]1Oc2ccc(N(C)C)cc2C(=O)N([C@H](C)CO)C[C@@H]1C
At 26 µM (top of the series)
  activity change, negative = cytotoxicity: -11.8% (inactive)

## Cc1ccc(S(=O)(=O)Nc2ccc3c(c2)C(=O)N([C@@H](C)CO)C[C@H](C)[C@H](CN(C)S(=O)(=O)c2ccc(Cl)cc2)OCCCC[C@@H](C)O3)cc1
At 26 µM (top of the series)
  activity change, negative = cytotoxicity: -26.9% (inactive)

## CCC(=O)N1CCC1(C)C(=O)Nc1ccc(C)c(C)c1 (centres undefined)
At 26 µM (top of the series)
  activity change, negative = cytotoxicity: -11.7% (inactive)

## CC(C)CC#Cc1ccc2c(c1)O[C@@H](CN(C)C(=O)C1CCC1)[C@@H](C)CN([C@H](C)CO)S2(=O)=O
At 26 µM (top of the series)
  activity change, negative = cytotoxicity: 1.96% (inactive)

## CCOC(=O)NC(=S)Nc1ccc(C(C)(C)C)cc1
At 26 µM (top of the series)
  activity change, negative = cytotoxicity: -11.3% (inactive)

## CO[C@H](CN(C)Cc1ccc2c(c1)OCO2)[C@@H](C)CN(C(=O)c1ccccc1)[C@@H](C)CO
At 26 µM (top of the series)
  activity change, negative = cytotoxicity: -12.9% (inactive)

## CNC[C@@H]1Oc2cc(Br)ccc2S(=O)(=O)N([C@H](C)CO)C[C@H]1C
At 26 µM (top of the series)
  activity change, negative = cytotoxicity: 28.3% (inactive)

## C[C@H]1CN([C@@H](C)CO)C(=O)Cc2cc(NC(=O)Nc3ccccc3)ccc2O[C@@H]1CN(C)C(=O)Nc1ccc2c(c1)OCO2
At 23.5 µM (top of the series)
  activity change, negative = cytotoxicity: -18.7% (inactive)

## Cc1noc(C)c1S(=O)(=O)Nc1ccc2c(c1)C(=O)N([C@H](C)CO)C[C@@H](C)[C@H](CN(C)Cc1ccccc1)OCCCC[C@H](C)O2
At 26 µM (top of the series)
  activity change, negative = cytotoxicity: -2.05% (inactive)

## Cc1cccc(C)c1NC(=O)C(CCc1ccccc1)N1CCC(c2ccccc2)CC1 (centres undefined)
At 26 µM (top of the series)
  activity change, negative = cytotoxicity: -63.1% (inactive)

## O=C(C[C@H]1CC[C@H]2[C@@H](COC[C@@H](O)CN2C(=O)Nc2ccc(Cl)cc2)O1)N1CCCCC1
At 26 µM (top of the series)
  activity change, negative = cytotoxicity: 25.8% (inactive)

## C[C@@H]1CN([C@@H](C)CO)C(=O)c2cc(NC(=O)C3CC3)ccc2O[C@H]1CN(C)CC1CCCCC1
At 26 µM (top of the series)
  activity change, negative = cytotoxicity: -17.8% (inactive)

## CO[C@@H]1CN(C)C(=O)c2ccc(NC(C)=O)cc2OC[C@@H](C)N(C(=O)c2ccccn2)C[C@H]1C
At 23.5 µM (top of the series)
  activity change, negative = cytotoxicity: 14.8% (inactive)

## COc1ccc(NC(=O)N(C)C[C@@H]2OCCCC[C@H](C)Oc3ccc(NC(=O)Nc4ccc5c(c4)OCO5)cc3C(=O)N([C@H](C)CO)C[C@@H]2C)cc1
At 26 µM (top of the series)
  activity change, negative = cytotoxicity: 4.66% (inactive)

## CCc1ccc(NC(=O)[C@H](C)NC(=O)C2CCN(C(=O)[C@@H](N)C(C)C)CC2)cc1
At 26 µM (top of the series)
  activity change, negative = cytotoxicity: -17.1% (inactive)

## C[C@H](CO)N1C[C@H](C)[C@@H](CN(C)C(=O)c2ccncc2)OCCCC[C@H](C)Oc2ccc(NC(=O)Cc3ccccc3)cc2C1=O
At 23.5 µM (top of the series)
  activity change, negative = cytotoxicity: -0.45% (inactive)

## CC(C)NC(=O)N(C)C[C@H]1OCCCC[C@H](C)Oc2ccc(NC(=O)c3ccccc3)cc2C(=O)N([C@@H](C)CO)C[C@@H]1C
At 26 µM (top of the series)
  activity change, negative = cytotoxicity: 55.3% (inactive)

## CCN1C(=S)N[C@@H](c2cccc(F)c2)C(C(=O)OC)=C1C
At 26 µM (top of the series)
  activity change, negative = cytotoxicity: 5.06% (inactive)

## C[C@@H]1CN([C@H](C)CO)C(=O)c2cc(C#CC(C)(C)O)cnc2O[C@@H]1CN(C)Cc1cncnc1
At 26 µM (top of the series)
  activity change, negative = cytotoxicity: 35.1% (inactive)

## C[C@@H]1CN([C@@H](C)CO)C(=O)c2cccc(NC(=O)C3CC3)c2O[C@@H]1CN(C)C
At 26 µM (top of the series)
  activity change, negative = cytotoxicity: -4.49% (inactive)

## C[C@H]1CN([C@@H](C)CO)C(=O)c2cccc(NS(=O)(=O)c3ccc(Cl)cc3)c2O[C@@H]1CN(C)CC1CC1
At 26 µM (top of the series)
  activity change, negative = cytotoxicity: 18% (inactive)

## COc1cccc(NC(=O)N2C[C@H](O)COC[C@H]3O[C@@H](CC(=O)NCc4ccccc4F)CC[C@@H]32)c1
At 26 µM (top of the series)
  activity change, negative = cytotoxicity: -23.2% (inactive)

## S=C(NCc1ccccc1)NCC1COc2ccccc2O1 (centres undefined)
At 26 µM (top of the series)
  activity change, negative = cytotoxicity: -15.9% (inactive)

## Cc1ccc(NC(=O)C2(C)CCN2C(=O)CC2CC2)cc1C (centres undefined)
At 42 µM (top of the series)
  activity change, negative = cytotoxicity: 22.8% (inactive)

## O=C(NC(=S)Nc1ccccc1N1CCCC1)c1ccc([N+](=O)[O-])cc1
At 26 µM (top of the series)
  activity change, negative = cytotoxicity: -8.4% (inactive)

## CO[C@H]1CN(C)C(=O)c2ccc(NC(C)=O)cc2OC[C@H](C)N(C(=O)c2ccncc2)C[C@@H]1C
At 26 µM (top of the series)
  activity change, negative = cytotoxicity: -20% (inactive)

## CC(C)NC(=O)NCC[C@@H]1CC[C@@H](NC(=O)CN(C)C)[C@@H](CO)O1
At 26 µM (top of the series)
  activity change, negative = cytotoxicity: 44.1% (inactive)

## CC(=O)N[C@H]1CC[C@H](CCNC(=O)C2CCC2)O[C@@H]1CO
At 26 µM (top of the series)
  activity change, negative = cytotoxicity: 10.8% (inactive)

## CNC[C@H]1OCCCC[C@H](C)Oc2ccc(NC(=O)Cc3ccccc3)cc2C(=O)N([C@H](C)CO)C[C@@H]1C
At 26 µM (top of the series)
  activity change, negative = cytotoxicity: -17.1% (inactive)
